# Experimental data: US20040038861A1, “Methods and compositions for normalizing lipid levels in mammalian tissues” (priority 2001, published 2004)
# Assays:
# soleus muscle [1] = assay: Individual free fatty acids by gas chromatography in soleus muscle of rats fed high fat diets; parameters: species or system rat; settings: 1 hour, GC
# Source text: (§1) High-fatted rats. Groups of male Wistar rats (n=21/diet) were ad libitum fed high-fat diets containing standard rat chow to which 40% (w/w) of lard, corn oil or olive oil had been added, from the time of weaning (age=21 d) until sacrifice at 50 d. Triacylglycerol from lard contains predominantly saturated fatty acids; that from corn oil […], see Table 4.
# (§2) Soleus muscle tissue isolation and incuhation.Immersion and incubation media was Krebs-Henseleit buffer (KHB) containing 118.5 mM NaCl, 4.75 mM KCl, 1.18 mM MgSO4.7H2O and KH2PO4, 24.8 mM NaHCO3, 2.54 mM CaCl2 and 10 mM d-glucose. The medium was gassed continuously with 95% O2/5% CO2. […] Soleus muscles of both legs were excised keeping the tissue immersed in KHB; muscles were separated into two equal parts and transferred to the incubation flasks. At the completion of incubation the muscles were snap frozen in liquid nitrogen, and then trimmed of connective tissue and all visible fat. The muscle strips were stored at −80° C. until analysis.
# (§3) Lipid extraction and chromatographic separation of fatty acids. Total lipids were extracted from muscle strips by a modified version of the method of Bligh and Dyer (Gorski et al., 1988, Mol & Cell Biochem 178:113-118; 1. Bligh et al., 1959, Can J Biochem Physiol 37: 911-917). Muscles were homogenised (Soniprep 150) in 0.4 ml of deionised water. Solvent volumes used herein were varied according to the water content of the muscle (ie muscle weight) as described (Bligh & Dyer, supra). 2 vols of methanol containing 0.005% butylated hydroxy toluene (BHT) and 1 vol chloroform were added to the muscle suspension. Homogenates were vortexed at maximum speed for 2 minutes and centrifuged at 2,500 g for 4 minutes. Supernatants were recovered and pellets re-extracted with 2 vol methanol, 1 vol chloroform and 0.8 vol 0.2 N HCl. Residues were vortexed for 2 min then centrifuged at 3,500 g for 3 min. After centrifugation the combined supernatants were diluted with 2v each of milli Q water and chloroform and the phases separated by centrifugation at 3,500 g for 4 minutes. The lower chloroform phase was recovered, neutralised by dropwise addition of 0.2 N methanolic NH4OH and evaporated down in a stream of N2. The samples were stored at −80° C. until required.
# (§4) Aminopropyl phase (250 mg) was packed into 16 ml teflon columns with teflon frits placed at the top and bottom of the bonded phase. Columns were placed in a Vac Elut apparatus and washed twice with 2 ml portions of hexane (Prasad et al., 1988, J Chromato 428: 221-228; Kaluzny et al., 1985, J Lipid Res 26: 135-140). The dry lipid samples were taken up in two 0.150 ml portions of chloroform and applied to the column under atmospheric pressure. After adsorption the neutral lipids were eluted with 4 ml of chloroform-2-propanol (2:1, v/v) and the free fatty acids eluted with 4 ml of 2% acetic acid in diethyl ether. The solvent containing the free fatty acids was dried under a stream of N2.
# Gas-liquid chromatographic analysis. Dry free fatty acid residues were processed for derivatisation of methyl esters by the boron trifluoride-methanol method (Prasad, supra). 1 ml of boron trifluoride in methanol (BF3) was added to each sample, the sample vials were heated at 70° C. for 5 minutes, shaken vigorously, and baked for a further 10 minutes. Once the samples reached room temperature 0.5 ml milli Q water was added, the sample vials shaken, 0.1 ml heptane was added and the sample shaken again. 0.05 ml of the top heptane layer was removed for GLC analysis. A Model HP5890 Plus Series 2 (Hewlett-Packard) gas chromatograph equipped with a DB-225 column was used to separate the methyl esters of the fatty acids and a Model HP 5890 GC with a Model HP 5973 MS (Hewlett-Packard) GC/MS used to confirm the identity of individual free fatty acids. […]
# soleus muscle [2] = assay: Lipid metabolites (free fatty acid, glycerol, triglyceride; enzymatic analysis) in isolated soleus muscle from normally fed rats; type: cell-based, rat; settings: soleus, normally fed rats, 100 nM amylin or CGRP-1, 4.4 μM norepinephrine
# soleus muscle [3] = assay: Triglyceride and free fatty acid content (enzymatic) in isolated soleus muscle of rats fed high fat diets; type: cell-based, rat; settings: diet with 40% added lard, 100 nM amylin or CGRP-1, 4.4 μM norepinephrine, 1 h
# Source text: as §1, §2, §3, §4
# Determination of tissue free fatty acids and triacylglycerol concentration by enzymatic analyses. Free fatty acids were separated from total lipid, evaporated under a stream of N2 and stored at −80° C. until analysis. Samples were dissolved in 50 μl of warm ethanol (35-40° C.), and 0.625 ml of a Triton X-100 (6% w/v) solution was added once the ethanol reached room temperature. The solution was stirred for 30 min, then made up to 0.825 ml with the Triton solution. Free fatty acids were quantified using a commercial method (Boehringer Mannheim) adapted for micro analyses (Cobas Mira, Roche Diagnostics), with palmitic acid standards. Triacyl glycerol levels were quantified in the total lipid fraction (Pointe Scientific) with a glycerol standard.
# Total lipid was extracted and quantitated. Results are shown in FIGS. 18A NEFA and 18B triglyceride.
# [4] = rats fed diet high in olive oil
compound,measurement,setting,value
"NC[C@H](O)c1ccc(O)c(O)c1 [Norepinephrine, norepinephrine]",free fatty acid adrenic C22:4,soleus muscle [1]; rats fed diet high in corn oil,0.05 ± 0.004 nmol/g wwt
same,free fatty acid arachidic C20:0,soleus muscle [1]; rats fed diet high in corn oil,0.03 ± 0.002 nmol/g wwt
same,free fatty acid arachidonic C20:4,soleus muscle [1]; rats fed diet high in corn oil,0.08 ± 0.009 nmol/g wwt
same,free fatty acid cervonic C22:6,soleus muscle [1]; rats fed diet high in corn oil,0.04 ± 0.003 nmol/g wwt
same,free fatty acid linoleic C18:2,soleus muscle [1]; rats fed diet high in corn oil,0.14 ± 0.02 nmol/g wwt
same,free fatty acid linolenic C18:3,soleus muscle [1]; rats fed diet high in corn oil,0.13 ± 0.01 nmol/g wwt
same,free fatty acid margaric C17:0,soleus muscle [1]; rats fed diet high in corn oil,0.04 ± 0.006 nmol/g wwt
same,free fatty acid myristic C14:0,soleus muscle [1]; rats fed diet high in corn oil,0.02 ± 0.002 nmol/g wwt
same,free fatty acid oleic C18:1,soleus muscle [1]; rats fed diet high in corn oil,0.12 ± 0.02 nmol/g wwt
same,free fatty acid palmitic C16:0,soleus muscle [1]; rats fed diet high in corn oil,0.09 ± 0.01 nmol/g wwt
same,free fatty acid palmitoleic (n-7) C16:1,soleus muscle [1]; rats fed diet high in corn oil,0.007 ± 0.0005 nmol/g wwt
same,free fatty acid palmitoleic (n-9) C16:1,soleus muscle [1]; rats fed diet high in corn oil,0.15 ± 0.01 nmol/g wwt
same,free fatty acid pentadecanoic C15:0,soleus muscle [1]; rats fed diet high in corn oil,0.04 ± 0.005 nmol/g wwt
same,free fatty acid stearic C18:0,soleus muscle [1]; rats fed diet high in corn oil,0.11 ± 0.008 nmol/g wwt
same,free fatty acid timnodonic C20:5,soleus muscle [1]; rats fed diet high in corn oil,0.05 ± 0.005 nmol/g wwt
same,free fatty acid vaccenic C18:1,soleus muscle [1]; rats fed diet high in corn oil,0.02 ± 0.001 nmol/g wwt
same,free fatty acid adrenic C22:4,soleus muscle [1]; rats fed diet high in lard,0.02 ± 0.003 nmol/g wwt
same,free fatty acid arachidic C20:0,soleus muscle [1]; rats fed diet high in lard,0.03 ± 0.004 nmol/g wwt
same,free fatty acid arachidonic C20:4,soleus muscle [1]; rats fed diet high in lard,0.012 ± 0.003 nmol/g wwt
same,free fatty acid cervonic C22:6,soleus muscle [1]; rats fed diet high in lard,0.01 ± 0.001 nmol/g wwt
same,free fatty acid linoleic C18:2,soleus muscle [1]; rats fed diet high in lard,0.09 ± 0.003 nmol/g wwt
same,free fatty acid margaric C17:0,soleus muscle [1]; rats fed diet high in lard,0.08 ± 0.008 nmol/g wwt
same,free fatty acid myristic C14:0,soleus muscle [1]; rats fed diet high in lard,0.04 ± 0.007 nmol/g wwt
same,free fatty acid oleic C18:1,soleus muscle [1]; rats fed diet high in lard,0.21 ± 0.01 nmol/g wwt
same,free fatty acid palmitic C16:0,soleus muscle [1]; rats fed diet high in lard,0.23 ± 0.02 nmol/g wwt
same,free fatty acid palmitoleic (n-7) C16:1,soleus muscle [1]; rats fed diet high in lard,0.02 ± 0.0008 nmol/g wwt
same,free fatty acid palmitoleic (n-9) C16:1,soleus muscle [1]; rats fed diet high in lard,0.01 ± 0.001 nmol/g wwt
same,free fatty acid pentadecanoic C15:0,soleus muscle [1]; rats fed diet high in lard,0.13 ± 0.02 nmol/g wwt
same,free fatty acid stearic C18:0,soleus muscle [1]; rats fed diet high in lard,0.22 ± 0.01 nmol/g wwt
same,free fatty acid timnodonic C20:5,soleus muscle [1]; rats fed diet high in lard,0.02 ± 0.004 nmol/g wwt
same,free fatty acid vaccenic C18:1,soleus muscle [1]; rats fed diet high in lard,0.07 ± 0.003 nmol/g wwt
same,free fatty acid adrenic C22:4,soleus muscle [1]; [4],0.02 ± 0.0007 nmol/g wwt
same,free fatty acid arachidic C20:0,soleus muscle [1]; [4],0.009 ± 0.0004 nmol/g wwt
same,free fatty acid arachidonic C20:4,soleus muscle [1]; [4],0.03 ± 0.0008 nmol/g wwt
same,free fatty acid cervonic C22:6,soleus muscle [1]; [4],0.12 ± 0.03 nmol/g wwt
same,free fatty acid linoleic C18:2,soleus muscle [1]; [4],0.04 ± 0.009 nmol/g wwt
same,free fatty acid linolenic C18:3,soleus muscle [1]; [4],0.04 ± 0.01 nmol/g wwt
same,free fatty acid margaric C17:0,soleus muscle [1]; [4],0.01 ± 0.001 nmol/g wwt
same,free fatty acid myristic C14:0,soleus muscle [1]; [4],0.005 ± 0.0002 nmol/g wwt
same,free fatty acid oleic C18:1,soleus muscle [1]; [4],0.28 ± 0.03 nmol/g wwt
same,free fatty acid palmitic C16:0,soleus muscle [1]; [4],0.19 ± 0.002 nmol/g wwt
same,free fatty acid palmitoleic (n-7) C16:1,soleus muscle [1]; [4],0.03 ± 0.009 nmol/g wwt
same,free fatty acid palmitoleic (n-9) C16:1,soleus muscle [1]; [4],0.23 ± 0.01 nmol/g wwt
same,free fatty acid pentadecanoic C15:0,soleus muscle [1]; [4],0.01 ± 0.0004 nmol/g wwt
same,free fatty acid stearic C18:0,soleus muscle [1]; [4],0.16 ± 0.006 nmol/g wwt
same,free fatty acid timnodonic C20:5,soleus muscle [1]; [4],0.04 ± 0.004 nmol/g wwt
same,free fatty acid vaccenic C18:1,soleus muscle [1]; [4],0.2 ± 0.003 nmol/g wwt
same,triacylglycerol (triglyceride) content,"soleus muscle [2]; 60-min, control 1.17±0.15, not significant",0.81 ± 0.09 µmol/g
same,intramuscular free fatty acid content,"soleus muscle [2]; 1 h, 23.7 nM insulin, control 78±21",295 ± 27 nmol/g
same,intramuscular glycerol content,"soleus muscle [2]; 1 h, control 0.07±0.007",0.04 ± 0.005 nmol/g
same,soleus muscle triglyceride content,soleus muscle [3]; control 1.14±0.16,0.69 ± 0.09 µmol/g
same,soleus muscle free fatty acid content,soleus muscle [3]; control 43±8,75 ± 7 nmol/g
